Columns and labels:
[1] = biological target: Neuronal acetylcholine receptor subunit alpha-3 (Rattus norvegicus, UniProt P04757)
[2] = biological target: Nicotinic acetylcholine receptor (Rattus leucopus, UniProt Q62594)
Nicotinic acetylcholine receptor, sequence (Q62594 whole entry): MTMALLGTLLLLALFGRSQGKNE

Neuronal acetylcholine receptor subunit alpha-3, sequence (P04757 whole entry): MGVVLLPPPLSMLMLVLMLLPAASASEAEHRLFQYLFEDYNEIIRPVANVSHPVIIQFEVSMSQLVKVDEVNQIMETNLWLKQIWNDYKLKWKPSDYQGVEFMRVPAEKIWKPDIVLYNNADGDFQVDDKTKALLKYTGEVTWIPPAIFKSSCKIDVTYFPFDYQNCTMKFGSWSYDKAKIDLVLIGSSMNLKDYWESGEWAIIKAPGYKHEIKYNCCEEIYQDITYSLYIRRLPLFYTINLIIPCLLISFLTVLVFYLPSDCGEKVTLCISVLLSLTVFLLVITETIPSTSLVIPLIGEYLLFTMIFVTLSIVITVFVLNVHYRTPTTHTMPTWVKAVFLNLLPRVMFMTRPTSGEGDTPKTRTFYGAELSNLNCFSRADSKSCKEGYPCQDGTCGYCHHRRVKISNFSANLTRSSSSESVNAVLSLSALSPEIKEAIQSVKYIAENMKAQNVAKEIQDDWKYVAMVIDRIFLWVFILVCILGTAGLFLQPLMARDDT

SMILES	Ki [1]	Ki [2]
CO[C@@H]1CC=C2CCN3CCC4=C(CC(=O)OC4)[C@@]23C1	> 10 µM	–
C[N+](C)(C)CCCCCC[N+](C)(C)C [Hexamethoniumdibromide]	> 10 µM	> 10 µM
C[N+](C)(C)CCOC(N)=O [(2-Hydroxyethyl)trimethyl ammonium chloride carbamate]	3.84 µM	–
COc1cc2c3cc1Oc1cc(ccc1O)C[C@H]1c4c(cc(OC)c(O)c4Oc4ccc(cc4)C[C@@H]3N(C)CC2)CC[N+]1(C)C [CAS_57-94-3]	> 10 µM	2.24 µM
O=c1cccc2n1C[C@H]1CNC[C@H]2C1 [(1S,9R)-7,11-diazatricyclo[7.3.1.0~2,7~]trideca-2,4-dien-6-one]	0.195 µM	–
